Laboratory results: publication PMC4189421, “Induction of Oligodendrocyte Differentiation and In Vitro Myelination by Inhibition of Rho-Associated Kinase” (ASN NEURO, 2014)

How the values were obtained:
[1] = system: mouse neurosphere-derived oligodendrocyte precursor cells (Nph-OPCs); assay: Morphology-based OPC differentiation assay (branches, outgrowth; high-content imaging); format: cell-based; settings: Mus musculus, Oligodendrocyte precursor cell, 72 h, read-out: IC50, generation of branches in OPC differentiation assay
Experimental: (§1) Neurospheres (Nph) were prepared from embryos at 14.5 days of gestation obtained from timed pregnant females of C57/Bl6 mice, as previously described ([Kornblum, Yanni, Easterday, & Seroogy, 2000]; [Pedraza, Monk, Lei, Hao, & Macklin, 2008]). In brief, after separation of meninges and cerebellum, cerebrum tissue was mechanically triturated with a 1-ml micropipette until total tissue dissociation was achieved, filtered through a 70 -µm cell strainer (Fisher Scientific, Pittsburgh, PA), and plated in 25-cm^2 plastic culture flasks (2 brains/flask). Nph proliferation media (NPM) consisted of Dulbecco’s Modified Eagle Medium (DMEM)/F12, B27 neuronal supplement (Gibco, Baltimore, MD) and 10 ng/ml […] (EGF; Sigma, St. Louis, MO). After 48 to 72 hr, floating Nphs were passaged at a 1 : 1 ratio into 75-cm^2 culture flasks. After a further 48 to 72 hr, they were passaged into 150-cm^2 flasks. Subsequent passages were performed every 3 to 4 days at a ratio of 1 : 2 or 1 : 3 in the same media, and Nph were used to generate OPCs for no more than 12 passages.
OPCs were generated by chemical disaggregation of Nph with a mouse neural progenitor dissociation kit following the manufacturer instructions (NeuroCult, StemCell Technologies, AB, Canada). The single-cell suspension was then filtered through a 40 -µm cell strainer and plated on poly-D-lysine (PDL)-coated plates. […]
To determine the effects of ROCK inhibition on OPCs, we developed a high-content image morphological analysis of OPC differentiation using mouse embryonic neural progenitor-derived OPCs (Nph-OPCs). […] Four images per well were analyzed using a neurite outgrowth module (Molecular Devices, Sunnyvale, CA). We quantified the number of branches and total outgrowth per cell (Figure 1). […] Additionally, nuclear staining by Hoechst allowed the accurate association of branches and processes to their corresponding cell bodies and permitted quantification of total cell numbers in each well.

mouse-derived OPCs = assay: Myelin protein mRNA expression in mouse-derived OPCs (qPCR); format: cell-based; settings: mouse-derived OPCs exposed for 4 days
Experimental: as §1, with “Subsequent passages were performed every 3 to 4 days at a ratio of 1 : 2 or 1 : 3 in the same media, and Nph were used to generate OPCs for no more than 12 passages.” left out
Total RNA was isolated from single-cell cultures or tissue explants using Tri-Zol reagent (Gibco). cDNA was generated from 1 to 3 µg of total RNA by Retrotranscriptase II (Gibco) reaction, and the selected transcripts were detected and amplified by quantitative RT-PCR in an Applied Biosystems (Grand Island, NY) 7500 fast qPCR machine, following the manufacturer’s instructions. […]

[2] = system: hPSC-OPCs cocultured with rat dorsal root ganglion neurons; assay: Myelination in hPSC-OPC / rat DRG neuron cocultures (MBP/NF overlap); format: cell-based, human; settings: compound for first 48 hr, 28 days coculture
Experimental: Human pluripotent stem cell-derived OPC (hSC-OPC)/[…] dorsal root ganglion (rDRG) cocultures were carried out as follows: 5,000 hES-OPCs were seeded on top of 14-day-old DRG neuron axons in each well of 96-well black μClear plates (Greiner). The cells were seeded in 100 μl of myelination media (MYL) for each well. Twenty-four hours after seeding, media were gently removed, and a fresh MYL medium that contained the compound of interest at a specific dilution (in 0.1% DMSO) was supplemented to the media (first feeding), and the total volume for each well was 200 μl. For each tested compound dose, four replicates were used. After 48 hr, the media were replenished by removing 100 μl of media, and fresh MYL medium (that contains 0.1% DMSO) was added to the wells. […]
The ArrayScan VTI HCS reader system (Cellomis, Thermo-scientific) was used for scanning 49 fields for each tested well under 10× objective. […] The four-parameter Hill-Slope curve fittings were generated by GraphPad Prism software using least squares fitting method, and EC50 values were calculated for the three major parameters of oligodendrocyte myelination: number of differentiated oligodendrocytes, areas of myelinated axons in pixels (MBP and NF overlap area), and number of myelinated regions (MBP and NF overlap count). […]

With `C[C@@H](N)[C@H]1CC[C@H](C(=O)Nc2ccncc2)CC1.Cl.Cl` [Y0503, trans-4-[(1 R)-1-aminoethyl]-N-4-pyridinylcyclohexanecarboxamide dihydrochloride] the IC50 [1] was 2.7 µM, the “MBP and PLP mRNA” value (mouse-derived OPCs) was “increased significantly” and the “Number and length of MBP-positive oligodendrocyte processes colocalized with NF-positive axons” value [2] was “dose-response effect”.
